Experimental data published in ChEMBL document CHEMBL1125312, “Highly potent, orally active diester macrocyclic human renin inhibitors” (J Med Chem, 1992).

Columns and labels:
Rattus norvegicus [1] = test: Cumulative dose excreted after intravenous administration at 8-24 hours in rats; assay type: ADME, organism-based; conditions: in vivo
Rattus norvegicus [2] = test: Compound was evaluated for the percentage of feces excretion of radioactivity, by male Sprague-Dawley rats after oral administration of compound dose (1 mg/kg) at 24-48 hr; assay type: ADME, organism-based; conditions: in vivo
Rattus norvegicus [3] = test: Compound was evaluated for the percentage of urine excretion of radioactivity, by male Sprague-Dawley rats after intravenous administration of compound dose (1 mg/kg) at 0-24 hr; assay type: ADME, organism-based; conditions: in vivo
Rattus norvegicus [4] = test: Compound was evaluated for the percentage of feces excretion of radioactivity, by male Sprague-Dawley rats after intravenous administration of compound dose (1 mg/kg) at 24-48 hr; assay type: ADME, organism-based; conditions: in vivo
[5] = Cumulative dose excreted after intraduodenal administration at 1.5-2.0 hours in rats; assay type: ADME, organism-based; conditions: rat, in vivo
Rattus norvegicus [6] = test: Compound was evaluated for the percentage of feces excretion of radioactivity, by male Sprague-Dawley rats after oral administration of compound dose (1 mg/kg) at 48-72 hr; assay type: ADME, organism-based; conditions: in vivo
Rattus norvegicus [7] = test: Compound was evaluated for the percentage of urine excretion of radioactivity, by male Sprague-Dawley rats after intravenous administration of compound dose (1 mg/kg) at 24-48 hr; assay type: ADME, organism-based; conditions: in vivo
Rattus norvegicus [8] = test: Cumulative dose excreted after intravenous administration at 2-3 hours in rats; assay type: ADME, organism-based; conditions: in vivo
[9] = Cumulative dose excreted after intraduodenal administration at 0-0.5 hours in rats; assay type: ADME, organism-based; conditions: rat, in vivo
Rattus norvegicus [10] = test: Cumulative dose excreted after intravenous administration at 6-8 hours in rats; assay type: ADME, organism-based; conditions: in vivo
Rattus norvegicus [11] = test: Cumulative dose excreted after intraduodenal administration at 8-24 hours in rats; assay type: ADME, organism-based; conditions: in vivo, other
[12] = Cumulative dose excreted after intravenous administration at 0.5-1 hours in rats; assay type: ADME, organism-based; conditions: rat, in vivo
Renin = target: T1, Renin (Homo sapiens, UniProt P00797); test: Inhibitory activity against human renin inhibition (at pH 7.4)
T1 sequence (P00797 whole entry): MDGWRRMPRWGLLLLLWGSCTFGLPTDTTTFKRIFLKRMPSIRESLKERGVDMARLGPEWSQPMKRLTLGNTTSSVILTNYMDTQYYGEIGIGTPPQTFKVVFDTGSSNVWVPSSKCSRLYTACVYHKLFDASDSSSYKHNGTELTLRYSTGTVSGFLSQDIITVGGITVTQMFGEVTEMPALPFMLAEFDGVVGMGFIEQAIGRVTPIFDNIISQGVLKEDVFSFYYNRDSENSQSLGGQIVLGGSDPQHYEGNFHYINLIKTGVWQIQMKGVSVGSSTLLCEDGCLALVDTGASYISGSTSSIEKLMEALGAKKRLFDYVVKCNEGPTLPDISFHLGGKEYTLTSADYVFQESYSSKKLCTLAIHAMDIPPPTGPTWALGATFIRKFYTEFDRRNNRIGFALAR

Rattus norvegicus [13] = test: Compound was evaluated for the percentage of feces excretion of radioactivity, by male Sprague-Dawley rats after oral administration of compound dose (1 mg/kg) at 0-24 hr; assay type: ADME, organism-based; conditions: in vivo
Rattus norvegicus [14] = test: Compound was evaluated for the percentage of urine excretion of radioactivity, by male Sprague-Dawley rats after oral administration of compound dose (1 mg/kg) at 24-48 hr; assay type: ADME, organism-based; conditions: in vivo
[15] = Cumulative dose excreted after intraduodenal administration at 0.5-1.0 hours in rats; assay type: ADME, organism-based; conditions: rat, in vivo
Rattus norvegicus [16] = test: Cumulative dose excreted after intravenous administration at 4-6 hours in rats; assay type: ADME, organism-based; conditions: in vivo
Rattus norvegicus [17] = test: Cumulative dose excreted after intravenous administration at 0-0.5 hours in rats; assay type: ADME, organism-based; conditions: in vivo
[18] = Cumulative dose excreted after intravenous administration at 1.0-1.5 hours in rats; assay type: ADME, organism-based; conditions: rat, in vivo
[19] = Cumulative dose excreted after intraduodenal administration at 3-4 hours in rats; assay type: ADME, organism-based; conditions: rat, in vivo
Rattus norvegicus [20] = test: Cumulative dose excreted after intravenous administration at 3-4 hours in rats; assay type: ADME, organism-based; conditions: in vivo
Rattus norvegicus [21] = test: Compound was evaluated for the percentage of feces excretion of radioactivity, by male Sprague-Dawley rats after intravenous administration of compound dose (1 mg/kg) at 0-24 hr; assay type: ADME, organism-based; conditions: in vivo
[22] = Cumulative dose excreted after intraduodenal administration at 2-3 hours in rats; assay type: ADME, organism-based; conditions: rat, in vivo
[23] = Cumulative dose excreted after intraduodenal administration at 1.0-1.5 hours in rats; assay type: ADME, organism-based; conditions: rat, in vivo
Rattus norvegicus [24] = test: Compound was evaluated for the percentage of urine excretion of radioactivity, by male Sprague-Dawley rats after oral administration of compound dose (1 mg/kg) at 48-72 hr; assay type: ADME, organism-based; conditions: in vivo
Rattus norvegicus [25] = test: Compound was evaluated for the percentage of urine excretion of radioactivity, by male Sprague-Dawley rats after oral administration of compound dose (1 mg/kg) at 0-24 hr; assay type: ADME, organism-based; conditions: in vivo
[26] = Cumulative dose excreted after intraduodenal administration at 6-8 hours in rats; assay type: ADME, organism-based; conditions: rat, in vivo
Rattus norvegicus [27] = test: Cumulative dose excreted after intraduodenal administration at 4-6 hours in rats; assay type: ADME, organism-based; conditions: in vivo, other
Rattus norvegicus [28] = test: Cumulative dose excreted after intravenous administration at 1.5-2 hours in rats; assay type: ADME, organism-based; conditions: in vivo

## O=C1CCC[C@H](CN2CCOCC2)OC(=O)[C@H](O)[C@H](CC2CCCCC2)NC(=O)[C@@H](NC(=O)[C@H](Cc2ccccc2)NC2CN3CCC2CC3)CO1 (some centres undefined)
Rattus norvegicus [1]
  Dose excreted: 48.7%
Rattus norvegicus [2]
  Dose excreted: 3.3%
Rattus norvegicus [3]
  Dose excreted: 18.5%
Rattus norvegicus [4]
  Dose excreted: 3.5%
[5]
  Dose excreted: 3.9%
Rattus norvegicus [6]
  Dose excreted: 0.2%
Rattus norvegicus [7]
  Dose excreted: 0.7%
Rattus norvegicus [8]
  Dose excreted: 46.4%
[9]
  Dose excreted: 2.4%
Rattus norvegicus [10]
  Dose excreted: 47.9%
Rattus norvegicus [11]
  Dose excreted: 4.7%
[12]
  Dose excreted: 42.7%
Renin
  IC50: 1.3 nM
Rattus norvegicus [13]
  Dose excreted: 81.7%
Rattus norvegicus [14]
  Dose excreted: 0.7%
[15]
  Dose excreted: 3.3%
Rattus norvegicus [16]
  Dose excreted: 47.5%
Rattus norvegicus [17]
  Dose excreted: 35.7%
[18]
  Dose excreted: 44.6%
[19]
  Dose excreted: 4.2%
Rattus norvegicus [20]
  Dose excreted: 46.9%
Rattus norvegicus [21]
  Dose excreted: 43.5%
[22]
  Dose excreted: 4%
[23]
  Dose excreted: 3.6%
Rattus norvegicus [24]
  Dose excreted: 0.3%
Rattus norvegicus [25]
  Dose excreted: 3.1%
[26]
  Dose excreted: 4.4%
Rattus norvegicus [27]
  Dose excreted: 4.3%
Rattus norvegicus [28]
  Dose excreted: 45.5%
